Values after ≈ are worked out from the molar mass of the structure shown.
Experiments:
[1] = Acute toxicity on rats via oral administration; details: rat, in vivo, po, 4500 mg/kg; for Mortality rate (%) / mortality: 1 week
Experimental: Both mice and rats take drugs orally (levoisovalerylspiramycin I, II and III prepared in Embodiment 1)
After observing the mice and rats for two days before test, and those without abnormal conditions is carried out test. Don't give anything to eat to mice and rats overnight before test. […] […] Observe those taking drugs for one week for toxic reaction and death.

[2] = tested on: streptococcus pneumoniae18; assay: Curative effect on mouse with abdominal infection (ED50); assay type: in vivo, streptococcus pneumoniae; details: Streptococcus, 168 h, streptococcus pneumoniae18, challenging dose 9.6 × 10^4 CFU/0.5 ml, deaths in 7 days, Bliss, read-out: ED50
Experimental: (§1) Test method: preparation of infection bacterial liquid: taking out the test bacterial liquid which is kept in a refrigerator at −80[…] to room temperature for about 1 h, then inoculating streptococcus pneumonia, pyogenic streptococcus and enterococcus absorbing 0.1 ml bacterial liquid respectively to 2 ml MH broth (add 10% inactivated horse serum), and inoculating 0.1 ml bacterial liquid of staphylococcus aureus to 2 ml MH broth according to the same method above; putting it in an incubator at 37[…] to be cultivated for 18 h, to obtain original bacterial liquid; diluting the original bacterial liquid with 5% gastric mucin to make animals infected with 100% lethal bacteria, to obtain infection bacterial liquid.
(§2) The clinical route of administration of carrimycin is proposed to be oral administration, thus intragastric administration is adopted in carrimychin test. Levoisovalerylspiramycin I (obtained in Embodiment 1) and of crystalline compound of levoisovalerylspiramycin I (prepared in Embodiment 27) are fed to animals via […].
(§3) After the mice are infected, respectively feed each mouse 0.2 ml via intragastric administration at 0.5 to 6 h, and they have no adverse reaction. Observe the number of deaths in 7 days, and calculate the 50% effective dose (ED50) of each drug for the infected mouse and compare the protective effect of drugs by Bliss program.

[3] = tested on: streptococcus pneumoniae3; assay: as above; assay type: in vivo, streptococcus pneumoniae; details: Streptococcus, 168 h, streptococcus pneumoniae3, challenging dose 6.4 × 10^4 CFU/0.5 ml, deaths in 7 days, Bliss, read-out: ED50
Experimental: as §1, §2, §3

[4] = tested on: streptococcus pneumoniae57; assay: as above; assay type: in vivo, streptococcus pneumoniae; details: Streptococcus, 168 h, streptococcus pneumoniae57, challenging dose 8.8 × 10^4 CFU/0.5 ml, deaths in 7 days, Bliss, read-out: ED50
Experimental: as §1, §2, §3

[5] = tested on: staphylococcus aureus12; assay: as above; assay type: in vivo, staphylococcus aureus; details: Staphylococcus, AUREUS12, 168 h, staphylococcus aureus12, challenging dose 4.8 × 10^4 CFU/0.5 ml, deaths in 7 days, Bliss, read-out: ED50
Experimental: as §1, §2, §3

[6] = tested on: staphylococcus aureus16; assay: as above; assay type: in vivo, staphylococcus aureus; details: Staphylococcus, AUREUS16, 168 h, staphylococcus aureus16, challenging dose 5.2 × 10^3 CFU/0.5 ml, deaths in 7 days, Bliss, read-out: ED50
Experimental: as §1, §2, §3

[7] = tested on: staphylococcus aureus21; assay: as above; assay type: in vivo, staphylococcus aureus; details: Staphylococcus, AUREUS21, 168 h, staphylococcus aureus21, challenging dose 4.2 × 10^4 CFU/0.5 ml, deaths in 7 days, Bliss, read-out: ED50
Experimental: as §1, §2, §3

[8] = tested on: staphylococcus aureus76; assay: as above; assay type: in vivo, staphylococcus aureus; details: Staphylococcus, AUREUS76, 168 h, staphylococcus aureus76, challenging dose 5.8 × 10^4 CFU/0.5 ml, deaths in 7 days, Bliss, read-out: ED50
Experimental: as §1, §2, §3

[9] = tested on: pyogenic streptococcus 772; assay: MIC against the infecting test organism; assay type: cell-based; details: read-out: MIC
[10] = tested on: pyogenic streptococcus 102; assay: MIC against the infecting test organism; assay type: cell-based; details: read-out: MIC
[11] = tested on: pyogenic streptococcus 119; assay: MIC against the infecting test organism; assay type: cell-based; details: read-out: MIC
[12] = tested on: staphylococcus aureus21; assay: MIC against the infecting test organism; assay type: cell-based, staphylococcus aureus; details: read-out: MIC
[13] = tested on: pyogenic streptococcus (93); assay: Clinical isolates, agar double dilution method; assay type: cell-based; details: 93 clinical isolates of pyogenic streptococcus; for MIC50: read-out: MIC50; for MIC90: read-out: MIC90
[14] = tested on: staphylococcus aureus (155); assay: Clinical isolates, agar double dilution method; assay type: cell-based; details: 155 clinical isolates of staphylococcus aureus; for MIC50: read-out: MIC50; for MIC90: read-out: MIC90
[15] = tested on: S. epidermidis (115); assay: Clinical isolates, agar double dilution method; assay type: cell-based; details: Staphylococcus epidermidis, 115 clinical isolates of S. epidermidis; for MIC50: read-out: MIC50; for MIC90: read-out: MIC90
[16] = tested on: hemophilus influenzae (37); assay: Clinical isolates, agar double dilution method; assay type: cell-based; details: 37 clinical isolates of hemophilus influenzae; for MIC50 / MIC90: Haemophilus influenzae; for MIC50: read-out: MIC50; for MIC90: read-out: MIC90
[17] = tested on: gonococcus (10); assay: Clinical isolates, agar double dilution method; assay type: cell-based; details: 10 clinical isolates of gonococcus; for MIC50: read-out: MIC50; for MIC90: read-out: MIC90
[18] = tested on: Chlamydia Trachomatis D/UW-3/Cx; assay: Chlamydia in vitro MIC, McCoy cells, immunofluorescence; assay type: cell-based; details: 48 hours, read-out: MIC
[19] = tested on: Chlamydia Pneumoniae CWL-029; assay: Chlamydia in vitro MIC, HEp-2 cells, immunofluorescence; assay type: cell-based; details: Chlamydia pneumoniae, 72 h, Chlamydia Pneumoniae CWL-029, HEp-2 cells, read-out: MIC

Row | SMILES | ED50 [2] | ED50 [3] | ED50 [4] | ED50 [5] | ED50 [6] | ED50 [7] | ED50 [8] | MIC [9] | MIC [10] | MIC [11] | MIC [12] | MIC50 [13] | MIC90 [13] | MIC50 [14] | MIC90 [14] | MIC50 [15] | MIC90 [15] | MIC50 [16] | MIC90 [16] | MIC range [17] | other results
1 | COC1C(OC(C)=O)CC(=O)OC(C)C/C=C/C=C/C(OC2CCC(N(C)C)C(C)O2)C(C)CC(CC=O)C1OC1OC(C)C(OC2CC(C)(O)C(OC(=O)CC(C)C)C(C)O2)C(N(C)C)C1O (centres unmarked) [Levoisovalerylspiramycin II, levoisovalerylspiramycin II] | 8.98 mg/kg | 8.99 mg/kg | 13.1 mg/kg | 108 mg/kg | 20.9 mg/kg | 38.9 mg/kg | 22.3 mg/kg | 0.06 µg/mL (≈ 0.0619 µM) | 0.12 µg/mL (≈ 0.124 µM) | 0.12 µg/mL (≈ 0.124 µM) | 0.5 µg/mL (≈ 0.516 µM) | 0.25 µg/mL (≈ 0.258 µM) | 32 µg/mL (≈ 33 µM) | 1 µg/mL (≈ 1.03 µM) | 32 µg/mL (≈ 33 µM) | 1 µg/mL (≈ 1.03 µM) | 64 µg/mL (≈ 66 µM) | 0.12 µg/mL (≈ 0.124 µM) | 1 µg/mL (≈ 1.03 µM) | 0.12 to 16 µg/mL | LD50 at 1 week [1]: > 4500 mg/kg; Mortality rate (%) [1]: 15%; mortality [1]: 3; MIC range [16]: 0.03 to 32 µg/mL; MIC50 [17]: 1 µg/mL (≈ 1.03 µM); MIC90 [17]: 4 µg/mL (≈ 4.13 µM); MIC [18]: 0.25 µg/mL (≈ 0.258 µM); MIC [19]: ≤ 0.016 µg/mL
2 | CC[C@H]1OC(=O)[C@H](C)[C@@H](O[C@H]2C[C@@](C)(OC)[C@@H](O)[C@H](C)O2)[C@H](C)[C@@H](O[C@@H]2O[C@H](C)C[C@H](N(C)C)[C@H]2O)[C@](C)(O)C[C@@H](C)C(=O)[C@H](C)[C@@H](O)[C@]1(C)O [erythrocin, reference compound] | 57.1 mg/kg | 85.1 mg/kg | 102 mg/kg | 266 mg/kg | 82.4 mg/kg | 214 mg/kg | 64.2 mg/kg | 0.5 µg/mL (≈ 0.681 µM) | 0.5 µg/mL (≈ 0.681 µM) | 0.5 µg/mL (≈ 0.681 µM) | 4 µg/mL (≈ 5.45 µM) | 0.5 µg/mL (≈ 0.681 µM) | > 64 µg/mL | 1 µg/mL (≈ 1.36 µM) | > 64 µg/mL | 8 µg/mL (≈ 10.9 µM) | > 64 µg/mL | 0.06 µg/mL (≈ 0.0818 µM) | 32 µg/mL (≈ 43.6 µM) | 0.12 to 64 µg/mL | MIC50 [17]: 1 µg/mL (≈ 1.36 µM); MIC90 [17]: 8 µg/mL (≈ 10.9 µM); MIC [18]: 0.5 µg/mL (≈ 0.681 µM); MIC [19]: ≤ 0.016 µg/mL
3 | CC[C@H]1OC(=O)[C@H](C)[C@@H](O[C@H]2C[C@@](C)(OC)[C@@H](O)[C@H](C)O2)[C@H](C)[C@@H](O[C@@H]2O[C@H](C)C[C@H](N(C)C)[C@H]2O)[C@](C)(O)C[C@@H](C)CN(C)[C@H](C)[C@@H](O)[C@]1(C)O [azithromycin, reference compound] | 14.9 mg/kg | 18.3 mg/kg | 19 mg/kg | 120 mg/kg | 32 mg/kg | 143 mg/kg | 58.8 mg/kg | 0.25 µg/mL (≈ 0.334 µM) | 0.5 µg/mL (≈ 0.668 µM) | 0.25 µg/mL (≈ 0.334 µM) | 4 µg/mL (≈ 5.34 µM) | 0.5 µg/mL (≈ 0.668 µM) | > 64 µg/mL | 2 µg/mL (≈ 2.67 µM) | > 64 µg/mL | 8 µg/mL (≈ 10.7 µM) | > 64 µg/mL | 0.25 µg/mL (≈ 0.334 µM) | 2 µg/mL (≈ 2.67 µM) | 0.12 to 64 µg/mL | MIC50 [17]: 2 µg/mL (≈ 2.67 µM); MIC90 [17]: 8 µg/mL (≈ 10.7 µM); MIC [18]: 0.25 µg/mL (≈ 0.334 µM); MIC [19]: 0.032 µg/mL (≈ 0.0427 µM)
4 | CCC(=O)OC1CC(=O)OC(C)C/C=C/C=C/C(OC2CCC(N(C)C)C(C)O2)C(C)CC(CC=O)C(OC2OC(C)C(OC3CC(C)(O)C(OC(=O)CC(C)C)C(C)O3)C(N(C)C)C2O)C1OC (centres unmarked) [Levoisovalerylspiramycin III, levoisovalerylspiramycin III] | 8.98 mg/kg | 8.99 mg/kg | 13.1 mg/kg | 108 mg/kg | 20.9 mg/kg | 38.9 mg/kg | 22.3 mg/kg | 0.06 µg/mL (≈ 0.061 µM) | 0.12 µg/mL (≈ 0.122 µM) | 0.12 µg/mL (≈ 0.122 µM) | 0.5 µg/mL (≈ 0.509 µM) | 0.25 µg/mL (≈ 0.254 µM) | 32 µg/mL (≈ 32.5 µM) | 2 µg/mL (≈ 2.03 µM) | 32 µg/mL (≈ 32.5 µM) | 1 µg/mL (≈ 1.02 µM) | 32 µg/mL (≈ 32.5 µM) | 0.12 µg/mL (≈ 0.122 µM) | 1 µg/mL (≈ 1.02 µM) | 0.12 to 16 µg/mL | LD50 at 1 week [1]: > 4500 mg/kg; Mortality rate (%) [1]: 15%; mortality [1]: 3; MIC range [16]: 0.03 to 32 µg/mL; MIC50 [17]: 1 µg/mL (≈ 1.02 µM); MIC90 [17]: 4 µg/mL (≈ 4.07 µM); MIC [18]: 0.25 µg/mL (≈ 0.254 µM); MIC [19]: 0.016 µg/mL (≈ 0.0163 µM)

From patent US8778896B2, “Levoisovalerylspiramycin I, II or III, preparations, preparation methods and uses thereof” (Shenyang Tonglian Group Co., Ltd., priority 2010, dated 2014)
